≈ marks a conversion by molar mass, not a printed value.
Columns and labels:
[1] = in vivo, cited from earlier work
M. malmoense = settings: cited from earlier work
[2] = tested on: Mycobacterium tuberculosis H37Rv; settings: standardized broth-dilution assay; cited from earlier work
M. phlei = settings: cited from earlier work
[3] = tested on: Drug-susceptible M. tuberculosis; settings: cited from earlier work
Calu-3 = assay: Cell viability (MTT) of pulmonary epithelial cells; format: cell-based
Experimental: (§1) MTT is the tetrazolium dye 3-(4,5-dimethylthiazol-2-yl)-2,5-diphenyltetrazolium bromide which is converted by mitochondrial reductase to its insoluble formazan. In living cells, the insoluble formazan can be dissolved by adding the detergent dimethylsulfoxide for 15 minutes. The absorption of the respective dye is measured by a plate-reader at 590 nm. For the calculation of the viability after the incubation of the test compounds a positive and a negative control is included. Hank's balanced salt solution (HBSS) is used as a negative control and the resulting absorbance value is set to 100% viability. The positive control (1% Triton-X-100) is used to set 0% viability. Accordingly, the IC50 value of the test formulation can be determined by measuring a dose-response curve in log-scale.
(§2) These formulations (designated as 100%) were diluted with HBSS to give the following formulations for testing:
(§3) Cells were treated with the test formulations for 4 hours at 37° C. The viability of the cells after exposure was used to set up a dose-response curve in logarithmic scale. A sigmoidal fit enables the IC20, IC50, and IC80 calculations of the test substances.

M. fortuitum = settings: cited from earlier work
M. hiberniae = settings: cited from earlier work
M. abscessus [4] = settings: cited from earlier work
M. smeqmatis mc2 155 = settings: cited from earlier work
[5] = human, in vivo, 400 mg; cited from earlier work
M. avium [6] = settings: cited from earlier work
MOR M. tuberculosis = settings: cited from earlier work
M. simiae = settings: cited from earlier work
M. marinum = settings: cited from earlier work
M. ulcerans = settings: cited from earlier work
M. avium [7] = settings: cited from earlier work; remark: listed apart in the source
M. qordonae = settings: cited from earlier work
M. kansasii = settings: cited from earlier work
M. maqeritense = settings: cited from earlier work
M. chelonae = settings: cited from earlier work
M. vaccae = settings: cited from earlier work
M. scrofulaceum = settings: cited from earlier work
A549 = assay: Cell viability (MTT) of pulmonary epithelial cells; format: cell-based
Experimental: as §1, §2, §3

M. abscessus [8] = settings: cited from earlier work; remark: listed apart in the source

For `COc1nc2ccc(Br)cc2cc1[C@@H](c1ccccc1)[C@@](O)(CCN(C)C)c1cccc2ccccc12` [bedaquiline, (1R,2S)-1-(6-bromo-2-methoxyquinolin-3-yl)-4-(dimethylamino)-2-(naphthalen-1-yl)-1-phenylbutan-2-ol], the “time to maximal plasma concentration after administration” value ([1]; po) is listed as 4 to 6 h, the effective half-life [1] is listed as 24 h and the “half life in tissues” value [1] is listed as “more than 5 months”. The terminal half life [1] was 5.5 months, the MIC (M. malmoense) was 0.50 µg/mL (≈ 0.9 µM) and the MIC99 [2] was 0.015 to 0.12 µg/mL. For the same molecule, the MIC (M. phlei) was 0.03 to 0.13 µg/mL, the MIC [3] was 0.06 µg/mL (≈ 0.108 µM) and the “cytotoxic effect on cell viability as compared with vehicle” value (Calu-3) was “minimal cytotoxic effect”. The MIC (M. fortuitum) was 0.13 to 0.25 µg/mL, the MIC (M. hiberniae) was 0.03 µg/mL (≈ 0.054 µM) and the MIC (M. abscessus [4]) was 0.25 µg/mL (≈ 0.45 µM). The MIC (M. smeqmatis mc2 155) was 0.12 µg/mL (≈ 0.216 µM), the “Cmax in the sputum” value [5] was 5000 ng/mL and the MIC (M. avium [6]) was 0.03 to 0.13 µg/mL. The MIC (MOR M. tuberculosis) was 0.06 µg/mL (≈ 0.108 µM), the MIC (M. simiae) was 0.03 µg/mL (≈ 0.054 µM) and the MIC (M. marinum) was 0.003 µg/mL (≈ 0.0054 µM). The MIC (M. ulcerans) was 0.5 µg/mL (≈ 0.9 µM), the MIC99 (M. avium [7]) was 0.01 to 0.03 µg/mL and the MIC (M. qordonae) was 0.03 µg/mL (≈ 0.054 µM). The MIC (M. kansasii) was 0.03 µg/mL (≈ 0.054 µM), the MIC (M. maqeritense) was 0.03 µg/mL (≈ 0.054 µM) and the MIC (M. chelonae) was 0.06 to 0.5 µg/mL. The MIC (M. vaccae) was 0.03 µg/mL (≈ 0.054 µM), the MIC (M. scrofulaceum) was 0.03 µg/mL (≈ 0.054 µM) and the “cytotoxic effect on cell viability as compared with vehicle” value (A549) was “minimal cytotoxic effect”. The MIC99 (M. abscessus [8]) was 0.25 to 0.5 µg/mL.
